Measurements: patent publication US20150366252A1, “SWEETENER ENHANCERS AND METHODS FOR USING THE SAME” (International Flavors & Fragrances Inc., priority 2014, published 2015)

System: human panelists (sweet taste of glucose)
Test: Glucose enhancement test: paired-comparison human panelist taste test
Format: in vivo
Conditions: for glucose concentration perceived by panelists as equally sweet (as sweet as): composition of 7% glucose + 8 ppm compound; for glucose enhancement effects (overall statement): human panelist taste test, 7% glucose + 8 ppm compound
Experimental: Compounds 1-3 were tested for glucose sweetness enhancement by human panelist taste tests. Test samples containing the compound of interest were tasted in pairs by the panelist to determine which of the samples were sweeter. Binominal distribution for two-sided pair comparisons were used to determine the probability of the correct number of responses at α=0.05 (95% confidence level).

[1] = 7% glucose + 8 ppm compound vs 8.5% glucose
[2] = 7% glucose + 8 ppm compound vs 8.5% glucose, 12 panelists × 2 reps

SMILES	sweetness perceived by panelists relative to 8.5% glucose [1]	Total (sample selected as sweeter by panelists) [2]	glucose concentration perceived by panelists as equally sweet (as sweet as) [% glucose]	glucose enhancement effects (overall statement)	further results
CCCNC(=O)C(C)(C)COc1cccc2c1C(N)=NS(=O)(=O)N2 [FEMA 4701, reference compound]	significantly less sweet	21	8	only showed marginal glucose enhancement effects	Total (sample selected as sweeter by panelists) (7% glucose + 8 ppm compound vs 8% glucose, 12 panelists × 2 reps): 13
Cc1nc2cccc(OCC(C)(C)C(=O)NC(C)C)c2c(N)c1C(=O)O [FEMA 4774, reference compound]	–	–	–	did not show significant glucose enhancement effects	sweetness perceived by panelists relative to 7% glucose (7% glucose + 8 ppm compound vs 7% glucose): only being directionally sweeter; Total (sample selected as sweeter by panelists) (7% glucose + 8 ppm compound vs 7% glucose, 12 panelists × 2 reps): 17
NC1=NS(=O)(=O)Nc2cccc(OCC3(C(=O)NC4CCCC4)CCCNC3=O)c21 (stereo not shown) [Compound 1, 3-(((4-Amino-2,2-dioxido-1H-benzo[c][1,2,6]thiadiazin-5-yl)oxy)methyl)-N-cyclopentyl-2-oxopiperidine-3-carboxamide]	significantly sweeter	–	10	–	Total (sample selected as sweeter by panelists) (7% glucose + 8 ppm compound vs 9.5% glucose, paired comparison): 17; Total (sample selected as sweeter by panelists) (7% glucose + 8 ppm compound vs 10% glucose, paired comparison): 11; Total (sample selected as sweeter by panelists) (7% glucose + 8 ppm compound vs 10.5% glucose, paired comparison): 6
CC(C)NC(=O)C1(COc2cccc3c2C(N)=NS(=O)(=O)N3)CCCNC1=O (stereo not shown) [Compound 2, 3-(((4-amino-2,2-dioxido-1H-benzo-[c][1,2,6]thiadiazin-5-yl)oxy)methyl)-N-isopropyl-2-oxopiperidine-3-carboxamide]	significantly sweeter	23	–	–	–
NC1=NS(=O)(=O)Nc2cccc(OCC3(C(=O)NC4CCCCC4)CCCNC3=O)c21 (stereo not shown) [Compound 3, 3-(((4-amino-2,2-dioxido-1H-benzo[c][1,2,6]thiadiazin-5-yl)oxy)methyl)-N-cyclohexyl-2-oxopiperidine-3-carboxamide]	significantly sweeter	21	9	–	Total (sample selected as sweeter by panelists) (7% glucose + 8 ppm compound vs 9% glucose, 12 panelists × 2 reps): 14
